Assay [1] concerns the target Pim1 kinase (Homo sapiens (Human), UniProt P11309). The following applies: read-out: Pim1 IC50.
In assay [2] the target is Pim3 kinase (Homo sapiens (Human), UniProt Q86V86). The settings on record: read-out: Pim3 IC50.

Pim1 kinase, sequence (P11309 whole entry): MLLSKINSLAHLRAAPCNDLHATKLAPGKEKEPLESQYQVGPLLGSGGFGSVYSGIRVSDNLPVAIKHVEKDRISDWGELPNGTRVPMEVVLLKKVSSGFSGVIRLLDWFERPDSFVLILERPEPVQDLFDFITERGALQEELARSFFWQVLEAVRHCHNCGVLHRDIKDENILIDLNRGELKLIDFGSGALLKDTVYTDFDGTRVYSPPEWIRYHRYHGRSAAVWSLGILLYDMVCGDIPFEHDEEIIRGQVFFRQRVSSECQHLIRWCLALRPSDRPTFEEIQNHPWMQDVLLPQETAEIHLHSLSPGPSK

In general, IC50 refers to the concentration that gives 50% inhibition. As for `N[C@H]1CCC[C@@H](c2ccncc2NC(=O)c2nc(-c3cc(O)ccc3F)ccc2F)C1` [Example 34, N-(4-((1R,3S)-3-aminocyclohexyl)pyridin-3-yl)-3-fluoro-6-(2-fluoro-5-hydroxyphenyl)picolinamide], the IC50 in assay [1] was determined as 4 nM; in assay [2], 6 nM. Consider `CC1CC(c2ccncc2NC(=O)c2ccc(F)c(-c3c(F)cccc3F)n2)=CC(O)C1` (centres unmarked) [Example 137, 6-(2,6-difluorophenyl)-5-fluoro-N-(4-(3-hydroxy-5-methylcyclohex-1-enyl)pyridin-3-yl)picolinamide], for which the IC50 in assay [1] was 1 nM; in assay [2], 7 nM. On to `C[C@H]1CN(c2ccncc2NC(=O)c2ccc(F)c(-c3ccccc3F)n2)C[C@@H](N)[C@@H]1O` [Example 25, N-(4-((3R,4R,5S)-3-amino-4-hydroxy-5-methylpiperidin-1-yl)pyridin-3-yl)-5-fluoro-6-(2-fluorophenyl)picolinamide], for which the IC50 in assay [1] was 1 nM. Regarding `CCCOc1ccc(F)c(-c2nc(C(=O)Nc3cnccc3[C@@H]3CC[C@H](O)[C@H](N)C3)ccc2F)c1` [Example 64, N-(4-((1R,3R,4S)-3-amino-4-hydroxycyclohexyl)pyridin-3-yl)-5-fluoro-6-(2-fluoro-5-propoxyphenyl)picolinamide], the IC50 in assay [1] is 2 nM; in assay [2], 5 nM. As for `Cc1ccc(F)c(-c2cccc(C(=O)Nc3cnccc3[C@@H]3CCC[C@H](N)C3)n2)c1F` [Example 28, N-(4-((1R,3S)-3-aminocyclohexyl)pyridin-3-yl)-6-(2,6-difluoro-3-methylphenyl)picolinamide], the IC50 in assay [1] was found to be 1 nM; in assay [2], 2 nM. Taken in the same sequence, the figures for `C[C@@H]1C[C@H](N)C[C@H](c2ccncc2NC(=O)c2nc(-c3ccc(O)cc3F)ccc2F)C1` [Example 39, N-(4-((1R,3S,5S)-3-amino-5-methylcyclohexyl)pyridin-3-yl)-3-fluoro-6-(2-fluoro-4-hydroxyphenyl)picolinamide] were 7 nM and 12 nM.

On to `C[C@H]1C[C@@H](c2ccncc2NC(=O)c2cccc(-c3c(F)cccc3F)n2)C[C@@H](N)[C@H]1O` [Example 76, N-(4-((1R,3R,4S,5S)-3-amino-4-hydroxy-5-methylcyclohexyl)pyridin-3-yl)-6-(2,6-difluorophenyl)picolinamide], for which the figures for the IC50 in assay [1] and in assay [2] were 1 nM and 2 nM, respectively. For the molecule `C[C@@H]1C[C@H](N)C[C@H](c2ccncc2NC(=O)c2nc(-c3cc(O)ccc3F)ccc2F)C1` [Example 43, N-(4-((1R,3S,5S)-3-amino-5-methylcyclohexyl)pyridin-3-yl)-3-fluoro-6-(2-fluoro-5-hydroxyphenyl)picolinamide], the IC50 in assay [1] amounted to 1 nM; in assay [2] it was 2 nM.

As to `C[C@H]1CN(c2ccncc2NC(=O)c2cccc(-c3c(F)cccc3F)n2)C[C@@H](N)[C@@H]1O` [Example 26, N-(4-((3R,4R,5S)-3-amino-4-hydroxy-5-methylpiperidin-1-yl)pyridin-3-yl)-6-(2,6-difluorophenyl)picolinamide], the IC50 in assay [1] worked out at 1 nM. Consider `C[C@H]1C[C@@H](c2ccncc2NC(=O)c2ccc(F)c(-c3c(F)cc(O)cc3F)n2)C[C@@H](N)[C@@H]1O` [Example 4, N-(4-((1R,3R,4R,5S)-3-amino-4-hydroxy-5-methylcyclohexyl)pyridin-3-yl)-6-(2,6-difluoro-4-hydroxyphenyl)-5-fluoropicolinamide], for which the values for the IC50 in assay [1] and in assay [2] were 1 nM and 2 nM, respectively.

For `Cc1ccc(F)c(-c2cccc(C(=O)Nc3cnccc3[C@H]3C[C@@H](N)[C@@H](O)[C@@H](C)C3)n2)c1F` [Example 31, N-(4-((1R,3R,4S,5S)-3-amino-4-hydroxy-5-methylcyclohexyl)pyridin-3-yl)-6-(2,6-difluoro-3-methylphenyl)picolinamide], the IC50 in assay [1] came out at 2 nM; in assay [2], 4 nM. Turning to `C[C@H]1CN(c2ccncc2NC(=O)c2cccc(-c3ccccc3F)n2)C[C@@H](N)[C@@H]1O` [Example 23, N-(4-((3R,4R,5S)-3-amino-4-hydroxy-5-methylpiperidin-1-yl)pyridin-3-yl)-6-(2-fluorophenyl)picolinamide], the IC50 in assay [1] was determined as 2 nM; in assay [2], 3 nM. With `C[C@H]1CN(c2ccncc2NC(=O)c2ccc(F)c(-c3ccccc3F)n2)C[C@@H](O)[C@@H]1O` [Example 114, N-(4-((3R,4R,5S)-3,4-dihydroxy-5-methylpiperidin-1-yl)pyridin-3-yl)-5-fluoro-6-(2-fluorophenyl)picolinamide], the IC50 in assay [1] and in assay [2] was 1 nM in each case. For `CCc1ccc(F)c(-c2cccc(C(=O)Nc3cnccc3[C@H]3C[C@@H](N)[C@@H](O)[C@@H](C)C3)n2)c1F` [Example 17, N-(4-((1R,3R,4S,5S)-3-amino-4-hydroxy-5-methylcyclohexyl)pyridin-3-yl)-6-(3-ethyl-2,6-difluorophenyl)picolinamide], the IC50 in assay [1] was determined as 1 nM; in assay [2] it was 5 nM. Take `C[C@@H]1C[C@H](N)C[C@H](c2ccncc2NC(=O)c2ccc(F)c([C@H]3CC[C@@H](O)CC3)n2)C1` [Example 54, N-(4-((1R,3S,5S)-3-amino-5-methylcyclohexyl)pyridin-3-yl)-5-fluoro-6-((1s,4s)-4-hydroxycyclohexyl)picolinamide]: in assay [1], the IC50 came to 3 nM. Take `C[C@@H]1C[C@H](N)C[C@H](c2ccncc2NC(=O)c2ccc(F)c([C@H]3CC[C@H](O)CC3)n2)C1` [Example 55, N-(4-((1R,3S,5S)-3-amino-5-methylcyclohexyl)pyridin-3-yl)-5-fluoro-6-((1r,4r)-4-hydroxycyclohexyl)picolinamide]: the IC50 in assay [1] was 3 nM.

Turning to `C[C@H]1CN(c2ccncc2NC(=O)c2ccc(F)c(C3CCCCC3)n2)C[C@@H](N)[C@@H]1O` [Example 16, N-(4-((3R,4R,5S)-3-amino-4-hydroxy-5-methylpiperidin-1-yl)pyridin-3-yl)-6-cyclohexyl-5-fluoropicolinamide], the IC50 in assay [1] was 1 nM. As for `COc1ccc(F)c(-c2nc(C(=O)Nc3cnccc3[C@@H]3C[C@H](C)C[C@H](N)C3)ccc2F)c1` [Example 45, N-(4-((1R,3S,5S)-3-amino-5-methylcyclohexyl)pyridin-3-yl)-5-fluoro-6-(2-fluoro-5-methoxyphenyl)picolinamide], in assay [1], the IC50 stood at 1 nM. Take `Nc1ccc(-c2c(F)cccc2F)nc1C(=O)Nc1cnccc1C1=CC(N)CCC1` (centres unmarked) [Example 107, 3-amino-N-(4-(3-aminocyclohex-1-enyl)pyridin-3-yl)-6-(2,6-difluorophenyl)picolinamide]: the IC50 in assay [1] stood at 2 nM. With `C[C@H]1C[C@@H](c2ccncc2NC(=O)c2ccc(F)c(-c3c(F)cccc3F)n2)C[C@@H](N)[C@H]1F` [Example 139, N-(4-((1R,3R,4S,5S)-3-amino-4-fluoro-5-methylcyclohexyl)-pyridin-3-yl)-6-(2,6-difluorophenyl)-5-fluoropicolinamide], in assay [2], the IC50 stood at 4 nM. The same measure, in the same setting: with `C[C@H]1C[C@@H](c2ccncc2NC(=O)c2nc(-c3c(F)cccc3F)c(F)cc2N)C[C@@H](O)[C@@H]1O` [Example 121, 3-amino-6-(2,6-difluorophenyl)-N-(4-((1R,3R,4R,5S)-3,4-methylcyclohexyl)pyridin-3-yl)-5-fluoropicolinamide] the figure was 2 nM. For the molecule `Nc1cc(F)c(-c2c(F)cccc2F)nc1C(=O)Nc1cnccc1[C@@H]1CC[C@H](O)[C@H](N)C1` [Example 65, 3-amino-N-(4-((1R,3R,4S)-3-amino-4-hydroxycyclohexyl)pyridin-3-yl)-6-(2,6-difluorophenyl)-5-fluoropicolinamide], the IC50 in assay [1] came out at 1 nM. Regarding `C[C@@H]1C[C@H](N)C[C@H](c2ccncc2NC(=O)c2nc(-c3c(F)cc(O)cc3F)ccc2F)C1` [Example 42, N-(4-((1R,3S,5S)-3-amino-5-methylcyclohexyl)pyridin-3-yl)-6-(2,6-difluoro-4-hydroxyphenyl)-3-fluoropicolinamide], the IC50 in assay [1] came to 1 nM. Consider `Nc1ccc(-c2c(F)cccc2F)nc1C(=O)Nc1cnccc1[C@@H]1CC[C@H](O)[C@@H](N)C1` [Example 104, 3-amino-N-(4-((1R,3S,4S)-3-amino-4-hydroxycyclohexyl)pyridin-3-yl)-6-(2,6-difluorophenyl)picolinamide], for which, in assay [1], the IC50 came to 3 nM. With `Nc1cc(F)c(-c2c(F)cccc2F)nc1C(=O)Nc1cnccc1[C@@H]1CC[C@H](O)[C@H](N)C1` (stereo in doubt) [Example 131, 3-amino-N-(4-(3-amino-4-hydroxycyclohexyl)pyridin-3-yl)-6-(2,6-difluorophenyl)-5-fluoropicolinamide], the IC50 in assay [1] is 2 nM.

As to `C[C@H]1C[C@@H](c2ccncc2NC(=O)c2nc(-c3c(F)cccc3F)c(F)cc2N)C[C@@H](N)[C@H]1O` (stereo in doubt) [Example 132, 3-amino-N-(4-(3-amino-4-hydroxy-5-methylcyclohexyl)pyridin-3-yl)-6-(2,6-difluorophenyl)-5-fluoropicolinamide], the IC50 in assay [1] was 1 nM. `COc1cc(F)c(-c2cccc(C(=O)Nc3cnccc3[C@H]3C[C@@H](N)C[C@@H](C(F)(F)F)C3)n2)c(F)c1` [Example 109, N-(4-((1R,3R,5S)-3-amino-5-(trifluoromethyl)cyclohexyl)pyridin-3-yl)-6-(2,6-difluoro-4-methoxyphenyl)picolinamide]: in assay [1], the IC50 is 1 nM.

Consider `CC1(C)C[C@H](N)C[C@H](c2ccncc2NC(=O)c2ccc(F)c(-c3c(F)cc(O)cc3F)n2)C1` [Example 122, N-(4-((1R,5R)-5-amino-3,3-dimethylcyclohexyl)pyridin-3-yl)-6-(2,6-difluoro-4-hydroxyphenyl)-5-fluoropicolinamide], for which the IC50 in assay [1] amounted to 1 nM. Consider `C[C@H]1C[C@@H](c2ccncc2NC(=O)c2nc(-c3c(F)cccc3F)c(F)cc2N)C[C@@H](N)[C@@H]1O` (stereo in doubt) [Example 130, 3-amino-N-(4-(3-amino-4-hydroxy-5-methylcyclohexyl)pyridin-3-yl)-6-(2,6-difluorophenyl)-5-fluoropicolinamide], for which the IC50 in assay [1] stood at 2 nM.

Source of the values: patent US8592455B2 (priority 2008, dated 2013).
